Key:
Aster-A = target: T1, Aster-A (Homo sapiens, UniProt Q96CP6); experiment: Microplate-based cholesterol transfer assay between liposomes (FRET); format: biochemical; details: Aster-A 125 nM, compound 10 μM, FRET with Rh-DHPE
T1 construct: Aster-A(359-547); GST (PreScission-cleavable) (N, cleaved yes); made in house; host or cells: E. coli OverExpress C41
T1 sequence (Q96CP6 359-547): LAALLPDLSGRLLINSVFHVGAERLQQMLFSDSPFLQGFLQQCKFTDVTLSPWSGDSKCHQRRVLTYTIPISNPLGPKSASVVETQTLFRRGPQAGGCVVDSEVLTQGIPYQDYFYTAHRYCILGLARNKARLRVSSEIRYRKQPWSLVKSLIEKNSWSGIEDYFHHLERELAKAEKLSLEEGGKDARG

STARD1 = target: T2, STARD1 (Homo sapiens, UniProt P49675); experiment: Effect on intrinsic protein fluorescence, STARD1; details: protein 1 µM, excitation 280 nm
T2 construct: STARD1(66-284); made in house; host or cells: E. coli BL21(DE3)
T2 sequence (P49675 66-284): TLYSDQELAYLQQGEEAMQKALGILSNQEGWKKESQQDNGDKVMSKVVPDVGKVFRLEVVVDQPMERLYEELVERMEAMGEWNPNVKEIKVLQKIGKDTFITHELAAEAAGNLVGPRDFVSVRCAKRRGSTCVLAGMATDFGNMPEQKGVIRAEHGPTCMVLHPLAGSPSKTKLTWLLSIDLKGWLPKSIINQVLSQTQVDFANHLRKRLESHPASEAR
Description: Effect of spirooxepinoindoles on intrinsic protein fluorescence
Figure S12: Spirooxepinoindoles 21a and 15f affect intrinsic protein fluorescence in dose-dependent fashion:
Respective proteins (1 µM) were incubated with the compounds at different doses. Proteins were excited at 280 ± 10 nm and fluorescence spectra were measured from 315 ± 20 nm to 600 ± 20 nm with a step size of 2 nm. A) STARD1 and 21a. B) ORP1 and 21a. C) ORP2 and 21a. D) ORP2 and 15f.
(1 picture or pasted object on this page, not shown here)
Superdex 75 pg (Cytiva) using an ÄKTA Explorer (Cytiva) in buffer containing 10 mM Tris -HCl, pH 8, 150 mM NaCl, 5 % glycerol and 2 mM DTT.
Fluorescence intensity and polarisation
Fluorescence intensity and polarisation (FP) experiments were performed in a buffer containing 20 mM HEPES pH 7.5, 300 mM NaCl, 0.01 %v/v Tween-20, 0.5% glycerol and 2 mM DTT in a final volume of 30 µl in black, flat-bottom, non-binding 384-well plates (Corning). All compounds were dispensed using the LabCyte Echo 550 Liquid handler. […] For competition experiments, 20 nM 22-NBD-cholesterol or 80 nM 25-NBD-cholesterol was mixed with protein and incubated with desired concentrations of screening compounds (Table S4) The fluorescence polarisation signal was measured using a Spark Cyto multimode microplate reader (Tecan) with filters set at 485 ± 20 nm for excitation and at 535 ± 20 nm for emission. […]

STARD5 = target: T3, STARD5 (Homo sapiens, UniProt Q9NSY2); parameters: method as in Depta et al.[43]; details: data reproduced; ref Depta et al.[43]; read-out: STARD5 Kd,app (DSF); cited from earlier work
T3 construct: STARD5(6-213); host or cells: E. coli BL21(DE3)
T3 sequence (Q9NSY2 6-213): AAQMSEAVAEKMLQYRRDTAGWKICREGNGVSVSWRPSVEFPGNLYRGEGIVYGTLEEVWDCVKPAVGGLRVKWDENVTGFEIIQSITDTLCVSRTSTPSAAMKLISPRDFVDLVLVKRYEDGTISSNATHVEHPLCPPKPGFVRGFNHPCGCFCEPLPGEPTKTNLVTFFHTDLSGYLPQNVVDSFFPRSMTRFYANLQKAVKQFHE

**Q.** Which “Inhibition of Aster-A mediated transport of 23-BODIPY-cholesterol between synthetic liposomes” value (Aster-A) does the source give for `CC12CCC3CC1CCC21C(=Nc2ccc(N4CCOCC4)cc21)O3` (single isomer, unassigned; (-)) [(−)-19a] here?
**A.** Its value is “inhibited”.

**Q.** Which “Quenching of intrinsic fluorescence of STARD1” value (STARD1) does the source give for `C[C@]12CC[C@@H]3C[C@H]1CC[C@@]21C(=Nc2ccc(-c4ccccc4)cc21)O3` [Compound 21a] here?
**A.** Its value is “dose-dependently quenches”.

**Q.** With `CCN(CC)CCO[C@H]1CC[C@@]2(C)C(=CC[C@@H]3[C@@H]2CC[C@]2(C)C(=O)CC[C@@H]32)C1` [Compound U18666A, reference compound] as the compound, how does the Kd (STARD5) read?
**A.** The Kd was > 30 µM.

From article PMC11758220, “Identification of a Privileged Scaffold for Inhibition of Sterol Transport Proteins through the Synthesis and Ring Distortion of Diverse, Pseudo-Natural Products” (ACS Central Science, 2025)
